In patent publication US12319676B2, “Substituted amide compounds useful as farnesoid X receptor modulators” (BRISTOL-MYERS SQUIBB COMPANY, priority 2019, dated 2025):

Target: T1, human FXR (Homo sapiens, UniProt Q96RI1)
T1 construct: expressed in transfected cells; host or cells: HEK293 cells stably carrying a 5xGal4 response element-luciferase reporter, transiently transfected with pcDNA3.1-Gal4-FXR
T1 sequence (Q96RI1 262-486 limits assumed): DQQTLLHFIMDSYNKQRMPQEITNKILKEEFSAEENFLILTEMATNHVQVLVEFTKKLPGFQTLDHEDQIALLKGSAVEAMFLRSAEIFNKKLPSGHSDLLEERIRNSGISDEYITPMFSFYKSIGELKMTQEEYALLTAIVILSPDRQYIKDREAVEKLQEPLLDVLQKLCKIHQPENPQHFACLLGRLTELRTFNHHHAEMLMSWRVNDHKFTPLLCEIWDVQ
Assay: transient human FXR/Gal4-luciferase reporter assay
Type: cell-based
Details: Gal4-hFXR fusion construct, luciferase reporter in HEK293 cells; overnight incubation; response as percentage of 8 μM GW-4064 control
Method in brief: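 HEK293 cells stably carrying a 5×Gal4-response-element firefly luciferase reporter were transiently transfected with a Gal4 DBD-human FXR LBD fusion, then treated overnight with compounds at 37 °C. Steady-Glo luminescence, minus DMSO background, was expressed as percent of the response to 8 μM GW-4064.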

| EC50 [nM] | SMILES |
| --- | --- |
| 3010 | Cc1noc(C23CCC(CN(C(=O)C4CCCCC4)c4cccc(C(=O)Nc5nccs5)c4)(CC2)CC3)n1 [Example 82, 3-(N-((4-(3-methyl-1,2,4-oxadiazol-5-yl)bicyclo[2.2.2]octan-1-yl)methyl)cyclohexanecarboxamido)-N-(thiazol-2-yl)benzamide] |
| 1130 | CCOc1ccc(Nc2cccc(N(CC34CCC(c5nc(C(C)(C)C)no5)(CC3)CC4)C(=O)C34CC(F)(C3)C4)c2)cc1 [Example 83, N-((4-(3-(tert-butyl)-1,2,4-oxadiazol-5-yl)bicyclo[2.2.2]octan-1-yl)methyl)-N-(3-((4-ethoxyphenyl)amino)phenyl)-3-fluorobicyclo[1.1.1]pentane-1-carboxamide] |
| 84 | CC(C)(C)c1nc(C23CCC(CN(C(=O)C45CC(F)(C4)C5)c4cccc(Nc5ccc(OC(F)F)cc5)c4)(CC2)CC3)no1 [Example 84, N-((4-(5-(tert-butyl)-1,2,4-oxadiazol-3-yl)bicyclo[2.2.2]octan-1-yl)methyl)-N-(3-((4-(difluoromethoxy)phenyl)amino)phenyl)-3-fluorobicyclo[1.1.1]pentane-1-carboxamide] |
| 608 | CCOc1ccc(Nc2cccc(N(CC34CCC(c5noc(C(C)(C)C)n5)(CC3)CC4)C(=O)C34CC(F)(C3)C4)c2)cc1 [Example 85, N-((4-(5-(tert-butyl)-1,2,4-oxidial-3-yl)bicyclo[2.2.2]octan-1-yl)methyl)-N-(3-((4-ethoxyphenyl)amino)phenyl)-3-fluorobicyclo[1.1.1]pentane-1-carboxamide] |
| 519 | CCc1ccc(Nc2cccc(N(CC34CCC(c5noc(C(C)(C)C)n5)(CC3)CC4)C(=O)C34CC(F)(C3)C4)c2)cc1 [Example 86, N-((4-(5-(tert-butyl)-1,2,4-oxadiazol-3-yl)bicyclo[2.2.2]octan-1-yl)methyl)-N-(3-((4-ethylphenyl)amino)phenyl)-3-fluorobicyclo[1.1.]pentane-1-carboxamide] |
| 2000 | CC(C)(C)c1nc(C23CCC(CN(C(=O)C45CC(F)(C4)C5)c4cccc(Nc5ccc(C(F)(F)F)cc5)c4)(CC2)CC3)no1 [Example 87, N-((4-(5-(tert-butyl)-1,2,4-oxadiazol-3-yl)bicyclo[2.2.2]octan-1-yl)methyl)-3-fluoro-N-(3-((4-(trifluoromethyl)phenyl)amino)phenyl)bicyclo[1.1.1]pentane-1-carboxamide] |
| 179 | CC(C)(C)c1nc(C23CCC(CN(C(=O)C45CC(F)(C4)C5)c4cccc(Nc5ccc(F)cc5)c4)(CC2)CC3)no1 [Example 88, N-((4-(5-(tert-butyl)-1,2,4-oxadiazol-3-yl)bicyclo[2.2.2]octan-1-yi)methyl)-3-fluoro-N-(3-((4-fluorophenyl)amino)phenyl)bicyclo[1.1.1]pentane-1-carboxamide] |
| 1120 | COC(=O)CCc1cccc(N(CC23CCC(c4ccc(N(C)C)cc4)(CC2)CC3)C(=O)C2CCCCC2)c1 [Example 89, Methyl 3-(3-(N-((4-(4-(dimethylamino)phenyl)bicyclo[2.2.2]octan-1-yl)methyl)cyclohexanecarboxamido)phenyl)propanoate] |
| 4000 | CS(=O)(=O)c1cccc(N(CC23CCC(c4nc(C5CC5)no4)(CC2)CC3)C(=O)[C@H]2C[C@](O)(C(F)(F)F)C2)c1 [Example 90, (1S,3S)—N-((4-(3-cyclopropyl-1,2,4-oxadiazol-5-yl)bicyclo[2.2.2]octan-1-yl)methyl)-3-hydroxy-N-(3-(methylsulfonyl)phenyl)-3-(trifluoromethyl)cyclobutane-1-carboxamide] |
| 2190 | N#CC1(c2ccc(Nc3cccc(N(CC45CCC(c6noc(C7(F)CC7)n6)(CC4)CC5)C(=O)[C@H]4C[C@](O)(C(F)(F)F)C4)c3)cc2)CC1 [Example 91, (1S,3S)—N-(3-((4-(1-cyanocyclopropyl)phenyl)amino)phenyl)-N-((4-(5-(1-fluorocyclopropyl)-1,2,4-oxadiazol-3-yl)bicyclo[2.2.2]octan-1-yl)methyl)-3-hydroxy-3-(trifluoromethyl)cyclobutane-1-carboxamide] |
| 2030 | CC(C)(C#N)Oc1ccc(Nc2cccc(N(CC34CCC(c5ccc(C(C)(F)F)cn5)(CC3)CC4)C(=O)[C@H]3C[C@](O)(C(F)(F)F)C3)c2)cc1 [Example 92, (1S,3S)—N-(3-((4-((2-cyanopropan-2-yl)oxy)phenyl)amino)phenyl)-N-((4-(5-(1,1-difluoroethyl)pyridin-2-yl)bicyclo[2.2.2]octan-1-yl)methyl)-3-hydroxy-3-(trifluoromethyl)cyclobutane-1-carboxamide] |
| 1420 | CC(F)(F)c1ccc(C23CCC(CN(c4cccc(Nc5ccc(C6(C#N)CC6)cc5)c4)C(=O)[C@H]4C[C@](O)(C(F)(F)F)C4)(CC2)CC3)nc1 [Example 93, (1S,3S)—N-(3-((4-(1-cyanocyclopropyl)phenyl)amino)phenyl)-N-((4-(5-(1,1-difluoroethyl)pyridin-2-yl)bicyclo[2.2.2]octan-1-yl)methyl)-3-hydroxy-3-(trifluoromethyl)cyclobutane-1-carboxamide] |
| 1320 | CC(C)(C)c1noc(C23CCC(CN(C(=O)C45CC(F)(C4)C5)c4cncc(C#N)c4)(CC2)CC3)n1 [Example 94, N-((4-(3-(tert-butyl)-1,2,4-oxadiazol-5-yl)bicyclo[2.2.2]octan-1-yl)methyl)-N-(5-cyanopyridin-3-yl)-3-fluorobicyclo[1.1.1]pentane-1-carboxamide] |
| 181 | CC(C)(F)c1nc(C23CCC(CN(C(=O)N[C@H]4CC[C@](C)(O)CC4)c4cccc(C#N)c4)(CC2)CC3)no1 [Example 95, 1-(3-cyanophenyl)-1-((4-(5-(2-fluoropropan-2-yl)-1,2,4-oxadiazol-3-yl)bicyclo[2.2.2]octan-1-yl)methyl)-3-((1R,4R)-4-hydroxy-4-methylcyclohexyl)urea] |
| 1000 | CC(C)(CO)CNC(=O)N(CC12CCC(c3noc(C(C)(C)F)n3)(CC1)CC2)c1cccc(C#N)c1 [Example 97, 1-(3-cyanophenyl)-1-((4-(5-(2-fluoropropan-2-yl)-1,2,4-oxadiazol-3-yl)bicyclo[2.2.2]octan-1-yl)methyl)-3-(3-hydroxy-2,2-dimethylpropyl)urea] |
| 230 | CC(F)(F)c1nc(C23CCC(CN(C(=O)N[C@H]4CC[C@H](O)CC4)c4cccc(C#N)c4)(CC2)CC3)no1 [Example 98, 1-(3-cyanophenyl)-1-((4-(5-(1,1-difluoroethyl)-1,2,4-oxadiazol-3-yl)bicyclo[2.2.2]octan-1-yl)methyl)-3-((1R,4R)-4-hydroxycyclohexyl)urea] |
| 391 | CC(F)(F)c1nc(C23CCC(CN(C(=O)N[C@H]4CC[C@](C)(O)CC4)c4cccc(C#N)c4)(CC2)CC3)no1 [Example 99, 1-(3-cyanophenyl)-1-((4-(5-(1,1-difluoroethyl)-1,2,4-oxadiazol-3-yl)bicyclo[2.2.2]octan-1-yl)methyl)-3-((1R,4R)-4-hydroxy-4-methylcyclohexyl)urea] |
| 1480 | CC(C)(CO)CNC(=O)N(CC12CCC(c3noc(C(C)(F)F)n3)(CC1)CC2)c1cccc(C#N)c1 [Example 100, 1-(3-cyanophenyl)-1-((4-(5-(1,1-difluoroethyl)-1,2,4-oxadiazol-3-yl)bicyclo[2.2.2]octan-1-yl)methyl)-3-(3-hydroxy-2,2-dimethylpropyl)urea] |
| 1520 | CC(C)(F)c1nc(C23CCC(CN(C(=O)N[C@H]4CC[C@H](O)CC4)c4ccc(F)c(Br)c4)(CC2)CC3)no1 [Example 101, 1-(3-bromo-4-fluorophenyl)-1-((4-(5-(2-fluoropropan-2-yl)-1,2,4-oxadiazol-3-yl)bicyclo[2.2.2]octan-1-yl)methyl)-3-((1R,4R)-4-hydroxycyclohexyl)urea] |
| 183 | CC(C)(C)c1nc(C23CCC(CN(C(=O)C45CC(F)(C4)C5)c4cccc(Nc5ncc(OC(F)F)cn5)c4)(CC2)CC3)no1 [Example 102, N-((4-(5-(tert-butyl)-1,2,4-oxadiazol-3-yl)bicyclo[2.2.2]octan-1-yl)methyl)-N-(3-((5-(difluoromethoxy)pyrimidin-2-yl)amino)phenyl)-3-fluorobicyclo[1.1.1]pentane-1-carboxamide] |
| 187 | CC(C)(C)c1nc(C23CCC(CN(C(=O)C45CC(F)(C4)C5)c4cccc(Nc5cnc(C6CC6)nc5)c4)(CC2)CC3)no1 [Example 103, N-((4-(5-(tert-butyl)-1,2,4-oxadiazol-3-yl)bicyclo[2.2.2]octan-1-yl)methyl)-N-(3-((2-cyclopropylpyrimidin-5-yl)amino)phenyl)-3-fluorobicyclo[1.1.1]pentane-1-carboxamide] |
| 221 | CC(C)(C)c1nc(C23CCC(CN(C(=O)C45CC(F)(C4)C5)c4cccc(Nc5ccc(OC(F)F)cn5)c4)(CC2)CC3)no1 [Example 104, N-((4-(5-(tert-butyl)-1,2,4-oxadiazol-3-yl)bicyclo[2.2.2]octan-1-yl)methyl)-N-(3-((5-(difluoromethoxy)pyridin-2-yl)amino)phenyl)-3-fluorobicyclo[1.1.1]pentane-1-carboxamide] |
| 292 | O=C(N(CC12CCC(c3ccc(C(F)(F)F)cn3)(CC1)CC2)c1cccc(Nc2ncc(C3CC3)cn2)c1)C12CC(F)(C1)C2 [Example 105, N-(3-((5-cyclopropylpyrimidin-2-yl)amino)phenyl)-3-fluoro-N-((4-(5-(trifluoromethyl)pyridin-2-yl)bicyclo[2.2.2]octan-1-yl)methyl)bicyclo[1.1.1]pentane-1-carboxamide] |
